Values of other authors as cited in US20080003280A1, “Combination cough treatment compounds and method of treating common coughs” (priority 2006, published 2008).

Experiments:
[1] = system: cough induced with a capsaicin challenge
cough [2] = details: patients with an upper respiratory tract infection; in combination with a decongestant
cough [3] = system: cough

Q: Which results are given for Cn1cnc2c1c(=O)[nH]c(=O)n2C [Theobromine, 3,7-dihydro-3,7-dimethyl-1H-purine-2,6-dione]?
A: mucociliary clearance ([1]; discovered in the same study): stimulates mucociliary clearance; toxicity ([1]; discovered in the same study): low toxicity; antitussive effect ([1]; patients, capsaicin challenge, in comparison to codeine and caffeine, FIG. 2): strong and long lasting antitussive effect, comparable, in fact to codeine

Q: For CN(C)CCC(c1ccc(Br)cc1)c1ccccn1 (stereo not drawn) [brompheniramine], which effect on cough (cough [2]) is on record?
A: Its effect on cough is “improvement in cough”.

Q: For COc1ccc2c(c1)[C@]13CCCC[C@@H]1[C@H](C2)N(C)CC3 [dextromethorphan], which cough suppression (cough [3]; 60 mg/dose in adults) is on record?
A: The cough suppression was “Significant cough suppression”.

Q: What about the antitussive effect (cough [3]; adults, dose 15-30 mg (30 mg in FIG. 4), versus placebo) of the same molecule?
A: The antitussive effect was “no greater than placebo”.
